In patent publication US20110160266A1, “Novel Anti-Arrhythmia Agent” (THE UAB RESEARCH FOUNDATION, priority 2008, published 2011):
Entries after “also recorded” stand apart in the source; their conditions may differ. Marks after values point to notes of the source that are not given here.

Tests used:
rat left atria [1] = experiment: Reversal or prevention of 2-APB-induced SMA in superfused rat left atria; conditions: for effect on 2-APB-induced sporadic ectopic activity (SMA): titration after appearance of SMA, absence of pacing
Protocol: (A) Titration curve of ranolazine reversal of SMA in superfused left atrial appendage. Superfused appendages (n=7) were treated with 2-APB and following the appearance of SMA they were titrated with increasing concentrations of ranolazine for 3-5 min at any concentration. Rates of SMA in the absence of pacing were recorded. (B) Typical raw mechanical data for an appendage treated with 2-APB and then with 0, 10 or 80 μM ranolazine. All data are in the absence of pacing. […]
To test whether an anion transport inhibitor affected SMA, atria (n=7) were paced at 0.1 Hz in KH and exposed to 15 μM 2-APB. Following the appearance of SMA, they were titrated with 100 to 400 μM DIDS for 3 to 5 min at each concentration. Whether SMA occurred at the end of each titration period was recorded.
In these experiments, a 2-APB model system was used to simulate abnormal automaticity. Specifically, paced (0.1 Hz) superfused left atria were treated with 2-APB (20 μM) and the pacing stimulus was stopped after the appearance of SMA. SKF-96365 (25 μM) was then added to the superfusate and the effect on SMA was measured.
(§1) Additional experiments determined the concentration-dependence of SKF-96365 inhibtion of SMA. These experiments were performed as described above except that various concentrations of SKF-96365 were added to the left atrial superfusate (about 10-65 μM).
In these experiments, a 2-APB model system was used to simulate abnormal automaticity. Specifically, superfused left atria were exposed to 0 or to 50 μM SKF-96365 for 10 min. Following this pre-incubation, muscles were titrated with increasing concentrations of 2-APB (0-30 μM) and the rate of SMA was measured about 10 min later in the absence of pacing.

rat left atria [2] = experiment: Suppression of STA induced by 2-APB plus BayK 8644 or isoproterenol in left atria
Protocol: 3 Hz-paced left atria (n=9 per group) were superfused (i) in Krebs-Henseleit alone or (ii) they were treated with 20 μM 2-APB for 10 min, (iii) with 300 nM BayK 8644 for 10 min and with 20 μM 2-APB for 10 min, or (iv) they were treated with 300 nM BayK 8644 and 20 μM 2-APB for 10 min, then with 70 μM zatebradine (3-[3-[[2-(3,4-Dimethoxyphenyl)ethyl]methyl amino]propyl]-1,3,4,5-tetrahydro-7,8,-dimethoxy-2H-3-benzazepin-2-one hydrochloride) for 10 min (Baruscotti et al., 2005). Pacing was interrupted at these times and rates of SMA were recorded.
(§2) Left atria (n=9) were paced at 0.1 Hz, treated with 300 nM BayK 8644 for 5 min, then with 20 μM 2-APB for 10 min, and the pacing stimulus was stopped. These preparations then were incubated with six increasing concentrations of zatebradine (10-100 μM) for 3-5 min at each concentration, and rates of SMA were recorded. Untreated right atria (n=9) also were titrated with zatebradine and its effect on contraction frequency was recorded.
To test whether zatebradine affects left atrial force of contraction, two groups of left atria (n=9 per group) were paced at 3 Hz and treated with 300 nM BayK 8644. Five minutes later one group was incubated with six increasing concentrations of zatebradine (10-100 μM) for 3-5 min at each concentration, and forces of contraction were recorded. A second group was treated with BayK 8644 but not zatebradine, and forces of contraction were recorded at corresponding times.
(§3) To test whether zatebradine affects the SMA occurring in the presence of 2-APB and isoproterenol, left atria (n=7) were paced at 0.1 Hz, treated with 30 nM isoproterenol for 5 min, then with 20 μM 2-APB for 10 min, and the pacing stimulus was stopped. Rates of SMA were recorded, these left atria were exposed to 70 μM zatebradine for 10 min, and rates of SMA were recorded again. A group of right atria (n=7) also were exposed to 30 nM isoproterenol for 5 min and then to 70 μM zatebradine for 10 min. Right atrial contraction frequency was recorded at these two times.
(§4) To test whether ZD-7288, an If inhibitor structurally unrelated to zatebradine (Baruscotti et al., 2005; Sanders et al., 2006) affects the SMA occurring in the presence of 2-APB and BayK 8644, rat left atria (n=7) were treated with 300 nM BayK 8644 for 5 min, then with 20 μM 2-APB for 10 min, and the rates of ectopic activity were recorded. These atria then were incubated with six increasing concentrations of ZD-7288 (10-100 μM) for 3-5 min at each concentration, and the rates of SMA were recorded. Right atria (n=7) were titrated similarly with ZD-7288 (0-100 μM) and the change in their contraction frequency was recorded.
In these experiments, a 2-APB model system was used to simulate tachycardic abnormal automaticity. Specifically, superfused left atria were treated sequentially with 300 nM BayK 8644, an activator of voltage-dependent calcium entry, which loads myocytes with calcium, and then with 2-APB (20 μM) to activate the putative myocyte system for abnormal automaticity. […] SKF-96365 (10 μM) was added to the superfusate. SKF-96365 reversed STA in these left atria within 2-3 min and the muscle became quiescent in the absence of pacing (FIG. 34, “Rest”).
as §1, with “inhibition” for “inhibtion”, “STA.” for “SMA.”, “10-70” for “10-65”, “μM). Exposing left atria to various concentrations of SKF-96365 reversed STA (FIG. 35).” for “μM).”

isolated rat left atria = experiment: Pharmacological activation of spontaneous tachycardic activity (STA): calcium-loading agents with or without 2-APB; conditions: for ectopic activity / mechanical stability without 2-APB / effect on left atrial force of contraction: agent without 2-APB, at the concentration given; for T0.5R (time to 50% relaxation) / T0.9R (time to 90% relaxation) / TPT (time to peak tension) / SMA Rate: concentrations per footnote; for Force Post: mg force per g atrial wet weight following a 10 min exposure to the agent; for Force Pre: mg force per g atrial wet weight prior to exposure to the agent; for SMA Rate: spontaneous atrial mechanical events
Protocol: Male Sprague-Dawley rats (325-400 g) were anesthetized with intra-peritoneal pentobarbital (0.1 g/kg). Their right and left atria were isolated, superfused at 30° C. in Krebs-Henseleit buffer, and nearly isometric forces of contraction were measured from these muscles (Wolkowicz et al., 2002). 2-APB was prepared as a 150 mM dimethyl sulfoxide stock.
Left atria (n=8 per group) were paced at 3 Hz and (i) titrated with 0 to 30 nM isoproterenol (Ahlquist, 1970) or (ii) exposed to 3 μM forskolin (Laurenza et al., 1980). Left atrial force and frequency of contraction, the time to peak tension and relaxation times were recorded after a 3-5 min exposure to forskolin or to any concentration of isoproterenol. The 3 Hz pacing stimulus was interrupted at the end of these protocols to measure SMA. […]
Left atrial contraction and relaxation times were recorded at these five times, the pacing stimulus was stopped and rates of SMA were recorded. […] Atrial mechanical function was measured at these four times; the pacing stimulus then was stopped and rates of SMA were recorded.
Left atria (n=6 per group) were paced at 3 Hz, titrated with 0 to 300 nM (−)BayK 8644 ([…]-1,4-Dihydro-2,6-dimethyl-5-nitro-4-[2-(trifluormethyl)phenyl]-3-pyridinecarboxylic acid methyl ester; Franckowiak et al. 1985) or FPL-64176 (2,5-Dimethyl-4-[2-(phenylmethyl)benzoyl]-1H-pyrrole-3-carboxlic acid methyl ester); Zheng et al., 1991) and their mechanical function and rates of SMA were recorded after a 5 min exposure to any concentration of slow calcium channel activator.
Atrial mechanical function was recorded at this time; the pacing stimulus then was stopped and rates of SMA were recorded. […]
Left atria (n=7) were paced at 3 Hz, treated with 120 μM ouabain (Illanes and Marshall, 1964), and any change in mechanical function was recorded at a new steady state, ˜10 min later. […]

rat left atria [3] = conditions: 25 nM ATX II
rat right atria = experiment: Right atrial spontaneous contraction frequency
Protocol: as §2, §3, §4

| Compound | ectopic activity / mechanical stability without 2-APB (isolated rat left atria) | effect on left atrial force of contraction (isolated rat left atria) | T0.5R (time to 50% relaxation) (isolated rat left atria) | T0.9R (time to 90% relaxation) (isolated rat left atria) | TPT (time to peak tension) (isolated rat left atria) | Force Post (isolated rat left atria) | Force Pre (isolated rat left atria) | SMA Rate (isolated rat left atria) | further results |
| --- | --- | --- | --- | --- | --- | --- | --- | --- | --- |
| COc1ccccc1OCC(O)CN1CCN(CC(=O)Nc2c(C)cccc2C)CC1 (stereo not drawn) [ranolazine, N-(2,6-dimethylphenyl)-2-[4-[2-hydroxy-3-(2-methoxyphenoxy)propyl]piperazin-1-yl]acetamide] | – | – | – | – | – | – | – | – | effect on 2-APB-induced sporadic ectopic activity (SMA) (rat left atria [1]): prevent the sporadic ectopic activity; effect on 2-APB-induced sporadic ectopic activity (SMA) (rat left atria [1]; listed as Ranolazine): blocks ectopic activity; effect on tachycardic activity with high calcium loads (rat left atria [2]; data not shown): suppresses, but does not completely prevent |
| O=C(NCC1CCCCN1)c1cc(OCC(F)(F)F)ccc1OCC(F)(F)F (stereo not drawn) [flecainide] | – | – | – | – | – | – | – | – | effect on 2-APB-induced sporadic ectopic activity (SMA) (rat left atria [1]): suppress this arrhythmic activity |
| ryanodine | no STA occurs | Time-dependent decreases in force of contraction | – | – | – | – | – | – | – |
| COc1ccc(CCN(C)CCCC(C#N)(c2ccc(OC)c(OC)c2)C(C)C)cc1OC (stereo not drawn) [verapamil] | – | – | – | – | – | – | – | – | triggered events after exposure to verapamil (rat left atria [3]; 10 μM verapamil for 5 min, expanded scale): continued presence of triggered events; effect on left atrial force of contraction / mechanical performance (titration) (rat left atria [3]; 1 Hz-paced, ~5 min at each concentration): markedly decreased contractile force; effect on the rate of triggered activity (titration) (rat left atria [3]; verapamil 2 to 20 μM, ~5 min at each concentration): did not affect the rate of triggered activity |
| C=C[C@@]1(C)CC(=O)[C@]2(O)[C@@]3(C)[C@@H](O)CCC(C)(C)[C@@H]3[C@H](O)[C@H](OC(C)=O)[C@@]2(C)O1 [forskolin] | – | – | 28.7^‡ msc | 58.4^‡ msc | 44.6* msc | 62* mg/gww | 21 mg/gww | 0 SMEs per minute | – |
| CCN(CC)CC(=O)Nc1c(C)cccc1C [lidocaine] | – | – | – | – | – | – | – | – | effect on 2-APB-induced sporadic ectopic activity (SMA) (rat left atria [1]): suppress this arrhythmic activity |
| Anemonia sulcata Toxin II [ATX II] | – | – | – | – | – | – | – | – | induction of triggered activity (contractile doublets) (rat left atria [3]; left atria paced at 1 Hz): triggered activity is induced |
| COC(=O)c1c(C)[nH]c(C)c1C(=O)c1ccccc1Cc1ccccc1 [FPL-64176, 2,5-Dimethyl-4-[2-(phenylmethyl)benzoyl]-1H-pyrrole-3-carboxlic acid methyl ester] | does not produce ectopic activity | increases their force of contraction | 35.3 msc | 73.3 msc | 52.8 msc | 68* mg/gww | 30 mg/gww | 0 SMEs per minute | – |
| CC(C)NCC(O)c1ccc(O)c(O)c1 (stereo not drawn) [isoproterenol] | does not produce ectopic activity | increases their force of contraction | 29.3^‡ msc | 58.7^‡ msc | 45.0^‡ msc | 104* mg/gww | 31 mg/gww | 0 SMEs per minute | right atrial contraction frequency (rat right atria; 30 nM isoproterenol for 5 min): 276±11.4 contractions/min; rate of spontaneous tachycardic activity in the absence of pacing (isolated rat left atria; 22 μM 2-APB-treated appendage plus 30 nM isoproterenol, 30° C.): ~230 contractions/min |
| CCN(c1ccccc1)c1cc(NC)[n+](C)c(C)n1.[Cl-] [ZD-7288] | – | – | – | – | – | – | – | – | effect on right atrial contraction frequency (rat right atria; ZD-7288 0-100 μM): decreases right atrial contraction frequency less robustly than zatebradine; effect on STA initiated by BayK 8644 and 2-APB (rat left atria [2]; 300 nM BayK 8644 + 20 μM 2-APB, zatebradine 70 μM, ZD-7288 10-100 μM, SKF-96365 about 10-70 μM): decreases left atrial STA |
| O=S(=O)(O)c1cc(N=C=S)ccc1C=Cc1ccc(N=C=S)cc1S(=O)(=O)O [DIDS, 4,4′-diisothiocyanatostilbene-2,2′-disulfonic acid] | – | – | – | – | – | – | – | – | DIDS concentration that reversed SMA completely (rat left atria [1]; 15 μM 2-APB, 0.1 Hz, 3 to 5 min at each DIDS concentration): > 300 µM |
| C[C@@H]1O[C@@H](O[C@H]2C[C@@H](O)[C@]3(CO)[C@H]4[C@H](O)C[C@]5(C)[C@@H](C6=CC(=O)OC6)CC[C@]5(O)[C@@H]4CC[C@]3(O)C2)[C@H](O)[C@H](O)[C@H]1O [ouabain] | does not produce ectopic activity; also recorded: does not affect their mechanical stability | increases their force of contraction; also recorded: doubles their force of contraction | – | – | – | – | – | – | – |
| COC(=O)C1=C(C)NC(C)=C([N+](=O)[O-])[C@H]1c1ccccc1C(F)(F)F [BayK 8644, (45)-1,4-Dihydro-2,6-dimethyl-5-nitro-4-[2-(trifluormethyl)phenyl]-3-pyridinecarboxylic acid methyl ester] | does not produce ectopic activity | increases their force of contraction | 35.2 msc | 73.2 msc | 54.1 msc | 83* mg/gww | 33 mg/gww | 0 SMEs per minute | – |
